Like-named read-outs stand apart in the source and are kept apart here.
Columns and labels:
[1] = target: T1, Recombinant human KIF18A (1-467 His-tagged) protein (Homo sapiens, UniProt Q8NI77); test: KIF18A Enzyme Assay (microtubule-stimulated ATPase activity, ADP-Glo); assay type: biochemical; details: 30 nM KIF18A, 75 μM ATP
T1 construct: Recombinant human KIF18A (1-467 His-tagged) protein; His; made in house
Protocol: KIF18A Enzyme Assay: Microtubule-stimulated ATPase activity assay was used to measure KIF18A enzyme activity after treatment with compound. Compounds were 2-fold serially diluted in DMSO (Sigma Inc) over 22-point concentration range. […] The assay measures ADP formed from the ATPase reaction.
Concentration-response curve-fitting and IC50 determination was performed using Genedata Screener Software (Standard 15.0.1, Genedata Inc) with a four-parameter logistic regression fit model.

[2] = system: human bone marrow mononuclear cells (HBMNC); test: BrdU cell cycle analysis and live cell count in normal cells; assay type: cell-based
Protocol: (§1) The effect KIF18A inhibitor treatment has on proliferation of normal somatic cells (e.g., not neoplastic cells) was tested by assaying proliferation of human bone marrow mononuclear cells (HBMNCs), primary human foreskin fibroblast cells (hFSF) and human mammary epithelial cells via a 5-bromo-2′-deoxyuridine (BrdU) incorporation assay in which BrdU, an analog of the nucleoside thymidine, is used to identify proliferating cells (Payton et. al., Molecular Cancer Therapeutics, 17(12):2575-85 (2018)). Cells were analyzed on BD LSRFortessa flow cytometer using BD FACSDiva software (BD Biosciences), and post-acquisition data analysis was performed using FSC-Express software (De Novo). The percentage of BrdU positive gated events on the stacked DNA content histograms were reported.
To further examine the effects of KIF18A inhibitor treatment on HBMNC, two normal donors were assessed using the BrdU coupled cell cycle assay and cell count assay (96 hours) was. […] In particular, the amount of BrdU-stained proliferating cells treated with Ispinesib, paclitaxel, or a CDK 4/6 inhibitor (palbociclib) was far less than the amount of vehicle control-treated BrdU-stained cells. […] KIF18A inhibitor treatment was also analyzed for impact on live cell count. After 96 hours, live cells were counted by Vi-CELL XR Cell Viability Analyzer (Beckman Coulter).
To investigate whether KIF18A inhibitors could circumvent this normal cell toxicity barrier, we examined the effects of Compounds C9 and C11 on a panel of cycling normal somatic cell types. First, we treated human bone marrow mononuclear cells (HBMNC) from two normal donors with DMSO, Compound C9 and C11 at 1 μM, ispinesib at 0.05 μM, paclitaxel at 0.05 μM, or palbociclib at 1 μM for 48 h (cell cycle) or 96 h (cell growth).
BrdU and cell cycle analysis. Human bone marrow mononuclear cells (HBMNCs) from two normal donors (#37612, #37534) were cultured for 8 days in defined media as previously described (Payton et al 2018). HBMNCs were seeded in 24-well plate at 1.2×10^6 cells per well in duplicate plates. Cells were treated with DMSO, Compound C9 (1 μM), Compound C11 (1 μM), ispinesib (0.05 μM), paclitaxel ([…]), or palbociclib (1 μM). Cells were collected at 48 h (cell cycle) and 96 h (cell growth). The first set of plates were pulsed with BrdU for 2 h and processing for BrdU cell cycle analysis as previously described (Payton et al 2018). Cells were analyzed on BD LSRFortessa flow cytometer running BD FACSDiva software and post-acquisition data analysis was performed using FSC-Express software. Data was reported for the percentage of BrdU and subG1 gated populations. The second set of plates were collected, and cells counted using Vi-CELL XR Cell Viability Analyzer (Beckman Coulter).

[3] = system: human foreskin fibroblast (hFSF) cells; test: BrdU incorporation assay in normal cells; assay type: cell-based; details: 48 hours
Protocol: as §1

[4] = system: human mammary epithelial cells (HMEC); test: BrdU incorporation assay in normal cells; assay type: cell-based; details: 48 hours
Protocol: as §1

[5] = system: OVCAR-8 NCI/ADR-RES cells; test: Nuclear count assay in multidrug resistant cells, with or without P-gp inhibitor; assay type: cell-based, human; details: 4-day NCA; for EC50: Homo sapiens, 96 h, read-out: EC50 (Count POC)
Protocol: Compound was added to the cells with a final volume of 200 μL in complete media containing 0.5% DMSO.
The plates were sealed and incubated for 1 hour at room temperature in the dark. Cells were stored at 4° C. in the dark until data acquisition. […] The Total Valid Object Count was represented as a Count POC (Percentage of DMSO Control) using the following formula:
Briefly, OVCAR-8 cells were seeded in duplicate in a Corning 96-well Flat Clear Bottom Black Polystyrene plates (Corning, N.Y.) in 100 μL of appropriate complete media at the appropriate density and grown for 24 hours. […] After 4 days (96 hours) of treatment, the cells were fixed by removing 100 μL of complete media from each well and replacing it with 100 μL of 2×formaldehyde (final 4%) and incubating the plates for 15 minutes at room temperature. […] The plates were sealed and incubated for 1 hour at room temperature in the dark. Cells were stored at 4° C. in the dark until data acquisition. […] The Total Valid Object Count was represented as a Count POC (Percentage of DMSO Control) using the following formula:
Count POC=(Total Valid Object Count in treated well)[…](Total Valid Object Count in DMSO treated wells)×100
Compound concentration and Count POC values were plotted using GraphPad Prism software (V7.0.4) and curve-fitting was performed with 4-parameter equation (variable slope). The concentration-response curves and standard deviation represent two independent experiments run in duplicate.

T1 sequence (Q8NI77 1-467): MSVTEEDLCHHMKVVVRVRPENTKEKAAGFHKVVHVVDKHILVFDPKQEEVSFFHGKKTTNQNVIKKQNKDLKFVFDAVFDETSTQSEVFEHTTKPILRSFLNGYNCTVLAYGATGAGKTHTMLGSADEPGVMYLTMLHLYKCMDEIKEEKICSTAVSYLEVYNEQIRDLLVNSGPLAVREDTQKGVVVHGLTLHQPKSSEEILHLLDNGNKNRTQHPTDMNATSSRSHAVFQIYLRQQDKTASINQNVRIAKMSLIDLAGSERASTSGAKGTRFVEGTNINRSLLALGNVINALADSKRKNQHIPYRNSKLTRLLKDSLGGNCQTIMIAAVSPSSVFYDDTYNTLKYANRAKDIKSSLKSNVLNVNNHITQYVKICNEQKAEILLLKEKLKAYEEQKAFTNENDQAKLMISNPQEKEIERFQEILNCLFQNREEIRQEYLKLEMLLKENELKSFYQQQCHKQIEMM
T1 sequence (P02550 whole entry partner): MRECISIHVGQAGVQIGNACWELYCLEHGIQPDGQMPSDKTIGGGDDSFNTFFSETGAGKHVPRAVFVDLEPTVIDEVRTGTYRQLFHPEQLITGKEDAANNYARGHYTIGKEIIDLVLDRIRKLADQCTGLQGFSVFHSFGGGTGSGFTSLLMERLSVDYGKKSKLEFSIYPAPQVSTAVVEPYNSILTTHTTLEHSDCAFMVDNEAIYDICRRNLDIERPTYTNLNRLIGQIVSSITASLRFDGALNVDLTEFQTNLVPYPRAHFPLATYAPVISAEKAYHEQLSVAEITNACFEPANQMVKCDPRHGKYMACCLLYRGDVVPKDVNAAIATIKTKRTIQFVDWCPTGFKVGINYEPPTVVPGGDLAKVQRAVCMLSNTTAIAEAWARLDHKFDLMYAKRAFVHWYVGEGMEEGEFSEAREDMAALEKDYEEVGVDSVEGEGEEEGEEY
T1 sequence (P02554 whole entry partner): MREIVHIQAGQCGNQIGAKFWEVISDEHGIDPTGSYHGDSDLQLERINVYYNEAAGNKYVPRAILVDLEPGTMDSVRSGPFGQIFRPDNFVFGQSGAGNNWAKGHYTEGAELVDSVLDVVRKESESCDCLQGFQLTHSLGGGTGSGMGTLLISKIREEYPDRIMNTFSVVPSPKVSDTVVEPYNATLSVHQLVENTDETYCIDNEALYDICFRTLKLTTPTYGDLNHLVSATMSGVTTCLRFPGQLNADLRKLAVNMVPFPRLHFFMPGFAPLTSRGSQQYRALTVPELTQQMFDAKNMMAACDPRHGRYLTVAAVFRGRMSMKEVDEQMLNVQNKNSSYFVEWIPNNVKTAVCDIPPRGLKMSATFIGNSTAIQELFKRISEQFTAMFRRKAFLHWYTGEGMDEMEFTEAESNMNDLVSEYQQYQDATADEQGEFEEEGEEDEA

`CC(C)(C)NS(=O)(=O)c1cccc(NC(=O)c2ccc(S(=O)(=O)C3(C)COC3)cc2N2CCC3(CC2)CC3)c1` [Compound C8, N-(3-(N-(tert-Butyl)sulfamoyl)phenyl)-4-((3-methyloxetan-3-yl)sulfonyl)-2-(6-azaspiro[2.5]octan-6-yl)benzamide] showed an IC50 [1] of 61 nM.
Molecule `Cc1cc(NC(=O)c2ccc(NS(=O)(=O)[C@@H](C)CO)cc2N2CCC3(CC2)CC3)nc(N2CCC(F)(F)CC2)n1` (single isomer, unassigned) [Compound C6] has an IC50 [1] of 70 nM.
In the case of `CC(=O)c1c(C)c2cnc(Nc3ccc(N4CCNCC4)cn3)nc2n(C2CCCC2)c1=O` [Palbociclib], the “live cell count relative to vehicle control” value [2] is reported as “lower cell count”, the “BrdU incorporation relative to DMSO treated cells” value [3] is reported as “decrease in BrdU incorporation” and the “BrdU incorporation relative to DMSO treated cells” value [4] is reported as “decrease in BrdU incorporation”.
For `CC(=O)O[C@H]1C(=O)[C@@]2(C)[C@H]([C@H](OC(=O)c3ccccc3)[C@]3(O)C[C@H](OC(=O)[C@H](O)[C@@H](NC(=O)c4ccccc4)c4ccccc4)C(C)=C1C3(C)C)[C@]1(OC(C)=O)CO[C@@H]1C[C@@H]2O` [Paclitaxel], the “fold change in potency in the presence vs in the absence of the P-gp inhibitor” value ([5]; GF120918 1 μM) was “greater than 500 fold”, the EC50 ([5]; absence of the P-gp inhibitor) was greater than 1000 nM and the EC50 ([5]; presence of P-gp inhibitor GF120918 (1 μM)) was 1.7 nM. For the same molecule, the “live cell count relative to vehicle control” value [2] was “lower cell count”.
`Cc1cc(NC(=O)c2ccc(NS(=O)(=O)[C@H](C)CO)cc2N2CCC3(CC2)CC3)nc(N2CCC(F)(F)CC2)n1` (single isomer, unassigned) [Compound C5] gave an IC50 [1] of 62 nM.
For `Cc1cc(NC(=O)c2ccc([S@](=N)(=O)C3CC3)cc2N2CCC3(CC2)CC3)nc(N2CCC(F)(F)CC2)n1` (single isomer, unassigned) [Compound C1, 2-(6-Azaspiro[2.5]octan-6-yl)-4-(R-cyclopropylsulfonimidoyl)-N-(2-(4,4-difluoro-1-piperidinyl)-6-methyl-4-pyrimidinyl)benzamide], the IC50 [1] was 64 nM.
With `Cc1cc(NC(=O)c2ccc(S(=N)(=O)C3CC3)cc2N2CCC3(CC2)CC3)nc(N2CCC(F)(F)CC2)n1` (single isomer, unassigned) [Compound C2, 2-(6-azaspiro[2.5]octan-6-yl)-4-(S-cyclopropylsulfonimidoyl)-N-(2-(4,4-difluoro-1-piperidinyl)-6-methyl-4-pyrimidinyl)benzamide] the IC50 [1] was 57 nM.
Molecule `CC(C)(C)NS(=O)(=O)c1cccc(NC(=O)c2ccc(NC(C)(C)CO)nc2N2CCC3(CC2)CC3)c1` [Compound C10, N-(3-(N-(tert-Butyl)sulfamoyl)phenyl)-6-((1-hydroxy-2-methylpropan-2-yl)amino)-2-(6-azaspiro[2.5]octan-6-yl)nicotinamide] has an IC50 [1] of 70 nM.
